Test results as given in patent US20140193510A1, “Polymer-Agent Conjugates, Particles, Compositions, and Related Methods of Use” (CERULEAN PHARMA INC., priority 2009, published 2014).
“And” between values parts separate entries of the source, which are not always exact repeats. Equal entries are not always repeated. “Also recorded” adds a separate entry of the source. Where two headings read alike, the source gives them in different places.

Tests used:
[1] = Body weight in HCT-116 tumor bearing mice (Example 44); assay type: in vivo, CD-1 nude mice; details: 30 mg/kg IV
Procedure: The treatments were administered IV into the tail vein at the respective dose volumes (refer to previous paragraph), beginning on post-implantation Day 13, when the mean tumor volume was 131 mm^3.

[2] = Body weight and ataxia in SK-OV-3 tumor-bearing mice (Example 45); assay type: in vivo, CD-1 nude mice; details: weekly x two injections
[3] = Body weight and ataxia in MDA-MB-435 tumor-bearing mice (Example 46); details: for ataxia: weekly x two injections
Procedure: The treatments were administered IV into the tail vein at the dose volumes stated above, beginning on post-implantation Day 21, when the mean tumor volume was 150 mm^3 or, for one group, on Day 37, when the mean tumor volume for that group was 433 mm^3.

[4] = Tolerability (body weight) in B16.F10 murine melanoma model (Example 43); assay type: in vivo, C57BL/6 mice
[5] = mouse, in vivo
Procedure: The stock solution was diluted further with PBS to 0.6, 1.5, 3, 4.5 and 6 mg/mL (for a corresponding dose of 6, 15, 30, 45 and 60 mg/kg) so that all the groups received the same amount of ethanol, polysorbate 80, water and PBS. […] 5) PEGylated O-acetyl-5050-PLGA nanoparticle vehicle at the highest concentration of 6 mg/mL.
The treatments were administered IV into the tail vein at a dose volume of 10 mL/kg, beginning on post-implantation Day 5, when the mean tumor volume was 55 mm^3. The treatments were administered 4 times, on Days 5, 8, 12 and 15 (biweekly×4 injections). On Day 17 post-tumor implantation, mice were euthanized by CO2 inhalation according to the procedure guideline. Blood was collected by cardiac puncture and put into ethylenediaminetetraacetic acid (EDTA) or serum separation blood collection tubes. Whole blood was analyzed on the day of collection for CBC analyses. After the blood clotted and was centrifuged, serum was frozen immediately on dry ice for serum chemistry analyses.
Tolerability was determined by changes in body weight, expressed as a percent of the initial body weight on post-implantation Day 5. […] Other indices of toxicity, complete blood count (CBC) and serum chemistry were determined from blood collected from animals that were euthanized on Day 17 by CO2 inhalation, according to the procedure guideline.

[6] = Tolerability in normal non-tumor-bearing mice (body weight, CBC, serum chemistry, ataxia, sciatic nerve; Example 47); assay type: in vivo, C57BL/6 mice; details: for ataxia: n=5
Procedure: Treatments were administered intravenously on a q7dx2 schedule, i.e., two treatments seven days apart (the first treatment was on Day one). The study ended on Day 14, six days after the 2nd treatment. Blood was collected for complete blood count (CBC) and serum chemistry. Leg muscles were collected so that nerve degeneration could be assessed from the sciatic nerve.

B16.F10 cells [7] = assay: Efficacy in B16.F10 murine melanoma model (Example 43); assay type: in vivo, C57BL/6 mice; details: q4dq3dx3 (three injections over 2 weeks), 15 mg/kg IV
Procedure: Refer to table for detailed description of formulations.
Tumor volume was calculated with the following equation: (width×width×length)/2 mm^3.

MDA-MB-435 cells = assay: In vivo efficacy, MDA-MB-435 melanoma human xenograft model (Example 46); set-up: species or system CD-1 nude mice; details: as of Day 76, weekly x two injections
Procedure: MDA-MB-435 cells were grown in culture to confluency in RPMI medium containing 10% FBS and 1% penicillin/streptomycin and then resuspended in RPMI (passage 4) for implantation into mice. A volume of 0.1 mL containing 4.0×10^6 cells MDA-MB-435 cells were implanted into the mammary gland of female CD-1 nude mice on Day 1.

[8] = Body weight changes in A2780 tumor-bearing mice (Example 42); assay type: in vivo, CD-1 nude mice; details: for % of initial body weight: Day 36
Procedure: This formulation was made within 30 minutes of administration to mice.
The treatments were administered 2 times, on Day 8 and Day 15 (weekly×2 injections) for n=8 mice per group. […] On Day 50, the study was ended for all remaining mice. When removed from the study, mice were euthanized by CO2 inhalation.

B16.F10 cells [9] = assay: CellTiter-Glo Luminescent Cell Viability Assay (cytotoxicity of nanoparticles); assay type: cell-based; details: 24, 48 and 72 hours of incubation
Procedure: B16.F10 cells, grown to 85-90% confluency in 150 cm^2 flasks (passage <30), were resuspended in media (MEM-alpha, 10% HI-FBS, 1× antibiotic-antimycotic) and added to 96-well opaque-clear bottom plates at a concentration of 1500 cells/well in 200 μL/well. The cells were incubated at 37° C. with 5% CO2 for 24 hours. The following day, serial dilutions of 2× concentrated particles and 2× concentrated free drug were made in 12-well reservoirs with media to specified concentrations. The media in the plates was replaced with 100 μL of fresh media and 100 μL of the corresponding serially diluted drug. Three sets of plates were prepared with duplicate treatments. Following 24, 48 and 72 hours of incubation at 37° C. with 5% CO2, the media in the plates was replaced with 100 μL of fresh media and 100 μL of CTG solution, and then incubated for 5 minutes on a plate shaker at room temperature set to 450 rpm and allowed to rest for 15 minutes. Viable cells were measured by luminescence using a microtiter plate reader. The data was plotted as viability vs. concentration and standardized to untreated cells.

Question: With `CC(=O)O[C@@]12CO[C@@H]1C[C@H](O)[C@@]1(C)C(=O)[C@H](O)C3=C(C)[C@@H](OC(=O)[C@H](O)[C@@H](NC(=O)OC(C)(C)C)c4ccccc4)C[C@@](O)([C@@H](OC(=O)c4ccccc4)[C@H]21)C3(C)C` [Free docetaxel, docetaxel] as the compound, how does the “Maximum body weight loss” value [1] read?
Answer: 14%

Question: What about the “Maximum body weight loss” value ([2]; 30 mg/kg IV) of the same compound?
Answer: 13%

Question: What about the ataxia ([2]; 30 mg/kg IV) of the same compound?
Answer: did not cause ataxia

Question: What about the body weight loss ([2]; 60 mg/kg IV) of the same compound?
Answer: greater than 20%

Question: What about the ataxia ([3]; 30 mg/kg IV) of the same compound?
Answer: did not cause ataxia

Question: And the body weight loss ([3]; 60 mg/kg IV, Days 21 and 28 (mean tumor size 150 mm^3 at start))?
Answer: greater than 20%

Question: What about the ataxia ([3]; 60 mg/kg IV, listed as docetaxel) of the same compound?
Answer: developed ataxia

Question: And the ataxia ([3]; 60 mg/kg IV, listed as free docetaxel)?
Answer: Ataxia was observed four days after the second treatment

Question: What about the “Maximum body weight loss” value ([4]; q3dq4dx3, 15 mg/kg IV, listed as Docetaxel) of the same compound?
Answer: 11% and 12%

Question: And the “Maximum body weight loss” value ([4]; q4dq3dx3, 15 mg/kg IV)?
Answer: 11%

Question: And the “Maximum body weight loss” value ([4]; q7dx3, 30 mg/kg IV)?
Answer: 11%

Question: And the “Maximum body weight loss” value ([4]; q14dx2, 60 mg/kg IV, listed as Docetaxel)?
Answer: 0%

Question: What about the “Maximum body weight loss” value ([4]; q14dx2, 60 mg/kg IV, listed as docetaxel) of the same compound?
Answer: did not show any body weight loss

Question: And the “Maximum body weight loss” value ([4]; three times, once every week, 15 mg/kg (as worded))?
Answer: 11%

Question: What about the “effect on serum chemistry parameters” value [5] of the same compound?
Answer: did not affect any serum chemistry parameter at doses up to 30 mg/kg

Question: And the “body weight more than the initial on Day 14” value ([6]; 30 mg/kg IV q7dx2)?
Answer: 3%

Question: What about the ataxia ([6]; 30 mg/kg IV q7dx2) of the same compound?
Answer: 0%

Question: What about the “body weight more than the initial on Day 14” value ([6]; 45 mg/kg IV q7dx2) of the same compound?
Answer: 2%

Question: And the ataxia ([6]; 45 mg/kg IV q7dx2)?
Answer: 20%

Question: What about the Neutrophil mean ([6]; 60 mg/kg IV q7dx2, Day 14) of the same compound?
Answer: 470 cells/μL

Question: What about the “weight lost after the second treatment, by the end of the study” value ([6]; 60 mg/kg IV q7dx2, Day 14) of the same compound?
Answer: 19%

Question: What about the ataxia ([6]; 60 mg/kg IV q7dx2) of the same compound?
Answer: 100%

Question: And the “effect on serum chemistry parameters” value ([6]; q7dx2, Day 14)?
Answer: did not affect any serum chemistry parameter at doses up to 60 mg/kg

Question: What about the “mice observed to develop ataxia” value ([6]; q7dx2, n=5/group, dose in the value) of the same compound?
Answer: no mice in the 30 mg/kg group were seen to develop ataxia or any overt signs of nerve damage; also recorded: One mouse in the 45 mg/kg group was observed to develop ataxia on Day 14; also recorded: Five out of five mice in the 60 mg/kg group was observed to develop ataxia

Question: And the “Tumor growth inhibition (TGI)” value (B16.F10 cells [7])?
Answer: 90%

Question: What about the “TGI compared with PEGylated nanoparticles” value (MDA-MB-435 cells; listed as docetaxel) of the same compound?
Answer: docetaxel at a dose of 30 mg/kg is equivalent to PEGylated nanoparticles at a dose of 60 mg/kg

Question: And the “TGI compared with PEGylated nanoparticles” value (MDA-MB-435 cells; listed as free docetaxel)?
Answer: the treatment at a dose of 15 mg/kg resulted in the same TGI for free docetaxel and PEGylated nanoparticles; also recorded: At a dose of 30 mg/kg, the TGI for free docetaxel was greater than that for PEGylated nanoparticles; also recorded: At a dose of 60 mg/kg, free docetaxel was equivalent to PEGylated nanoparticles until the free drug group was removed from the study

Question: And the “Maximum body weight loss” value ([8]; 15 mg/kg IV weekly x 2)?
Answer: 7%

Question: And the “% of initial body weight” value ([8]; 15 mg/kg)?
Answer: 113±11%

Question: And the “Maximum body weight loss” value ([8]; 30 mg/kg IV weekly x 2)?
Answer: 10%

Question: And the “% of initial body weight” value ([8]; 30 mg/kg)?
Answer: 105±9%

Question: For docetaxel-5050 PLGA-O-acetyl, which “growth of B16.F10 cells (viability)” value (B16.F10 cells [9]) is on record?
Answer: inhibited the growth of B16.F10 cells in a dose and time dependent manner

Question: Which “growth of B16.F10 cells (viability)” value (B16.F10 cells [9]) does the source give for doxorubicin 5050 PLGA amide here?
Answer: inhibited the growth of B16.F10 cells in a dose and time dependent manner

Question: Which “growth of B16.F10 cells (viability)” value (B16.F10 cells [9]) does the source give for paclitaxel-5050 PLGA-O-acetyl here?
Answer: inhibited the growth of B16.F10 cells in a dose and time dependent manner
